For test [1], the system named is U-87 (human primary glioblastoma) cells. Briefly: Short term cytotoxicity, MTT assay. It is filed as cell-based. The note with it: 1 h treatment then 72 h culture, read-out: cytotoxicity expressed in IC50, U-87. How it is done: (§1) For the short term cytotoxicity studies the A-431 (human squamous carcinoma) and U-87 (human primary glioblastoma) cells were cultured in RPMI-1640 medium supplemented with 10% FCS (fetal calf serum, Sigma Ltd.), 2 mM L-glutamine, and […] gentamicin. Cell cultures were maintained at 37° C. in a humidified atmosphere with 5% CO2. The cells were grown to confluency and were distributed into 96-well plate with initial cell number of 5.0×10^3 per well. After 24 h incubation at 37° C., the cells were treated with the compounds in 200 μL final volume containing 1.0 v/v % DMSO. The cells were incubated with the compounds at 10^−4-10^2 μM concentration range for 1 h. Control cells were treated with serum free medium (RPMI-1640) only or with DMSO (c=1.0 v/v %) at 37° C. for 1 h. After incubation the cells were washed twice with serum free (RPMI-1640) medium. To determine the in vitro cytostatic effect, the cells were cultured for a further 72 h in 10% serum containing medium. MTT-solution ([…], 2 mg/mL, final concentration: 0.37 mg/mL) was added to each well. The respiratory chain [26, 27] and other electron transport systems reduce MTT and thereby form non-water-soluble violet formazane crystals within the cell. […] After 4 h of incubation the cells were centrifuged for 5 min (900 g) and the supernatant was removed. The obtained formazane crystals were dissolved in DMSO ([…]) and optical density (OD) of the samples was measured at λ=540 and 620 nm, respectively, using ELISA Reader (iEMS Reader, Labsystems, Finland). OD620 values were subtracted from OD540 values. The percent of cytostasis was calculated by using the following equation: Cytostatic effect (%)=[1−(ODtreated/ODcontrol)]×100 Values ODtreated and ODcontrol correspond to the optical densities of the treated and the control cells, respectively. In each case two independent experiments were carried out with 4 parallel measurements. […] The curves were defined using Microcal™ Origin1 (version 7.5) software: cytostasis was plotted as a function of concentration, fitted to a sigmoidal curve, and based on this curve, the half maximal inhibitory concentration (IC50) value was determined.
For orientation: Tetrazolium dyes change colour on reduction, which living cells bring about.

The subject of test [2] is A-431 (human squamous carcinoma) cells. Briefly: Short term cytotoxicity, MTT assay. It is filed as cell-based. Conditions: 1 h treatment then 72 h culture, read-out: cytotoxicity expressed in IC50, A-431. How it is done:
as §1

In test [3] the test system is MDA-MB-231 human triple-negative breast cancer xenografts. The test can be described thus: Antitumoral effect on subcutaneous MDA-MB-231 tumor xenografts in SCID mice (Example 23). It is filed as in vivo. The note with it: intraperitoneal. The protocol:
MDA-MB-231 human triple-negative breast cancer xenografts were formed by subcutaneous inoculation of tumor cells into the back of the immunodeficient (SCID) mice. The investigated materials were injected into the animals intraperitoneal every two-three days for 3 weeks.
Forty SCID mice were included in the experiment. Each animal group was kept in separate cage during the experiments. On each cage, there was an identification card with birth date, the date of tumor cell injection, number and gender of animals. The injection of each substance was written on the identification card. Eight animals per substance were used and identified by ear cutting.
MDA-MB-231 human triple-negative breast cancer cells were grown in RPMI-1640 Medium (Sigma Chemical Co., St. Louis, MO), supplemented with 10% fetal bovine serum (Sigma) and 1% penicillin-streptomycin (Sigma) at 37° C. in a humidified atmosphere of 5% CO2. […]
During the experiment weight of the animals and size of the tumors were recorded.
Tumor volume was determined three times a week during the experiment.
Anti-tumor effect of compounds was evaluated also measuring tumor weight in each group after termination of experiment (FIGS. 64 and 65).

SMILES strings stand for the structures.

One may read the IC50 as the point on the concentration scale where inhibition reaches its midpoint. In the case of `O=C1C2=C(CCN(Cc3cccc(F)c3)C2)N2CCN=C2N1Cc1ccc(C(F)(F)F)cc1` [I/3, reference compound], the IC50 in test [1] was 4.16 µM; in test [2], below 0.2 µM.

For the compound `O=C1C2=C(CCN(Cc3cc(F)cc(F)c3)C2)N2CCN=C2N1Cc1ccc(Cl)cc1` [I/124, 4-(4-Chlorobenzyl)-7-(3,5-difluorobenzyl)-2,4,6,7,8,9-hexahydroimidazo[1,2-a]pyrido[3,4-e]pyrimidin-5(1H)-one], the “tumor volume / tumor growth” value in test [3] (3 weeks, vs control (Student's t-test)) is “significant”. The “tumor weight after termination” value in test [3] (after termination of experiment, vs control) is “highest, significant inhibition”.

These data come from US20230295162A1 (EÖTVÖS LORÁND TUDOMÁNYEGYETEM, priority 2020, published 2023).
